Test results as given in ChEMBL document CHEMBL1201862, “PubChem BioAssay data set” (2004).
Where a name gives a salt, the structure may show the parent alone. The source made the active and inactive calls.

Key:
[1] = molecular target: Genome polyprotein (dengue virus type 2, UniProt P29990); assay: Dengue-2 NS5 methyltransferase inhibitors, primary screen, biochemical, confirmation dose response (AID 588689); type: functional
[2] = molecular target: T1, Polyadenylate-binding protein 1 (Homo sapiens, UniProt P11940); assay: PABP1 MLLE–PAM2 interaction inhibitors, dose response, miRNA deadenylation inhibitor project, biochemical, fluorescence polarization, Cy5-PAM2 peptide, secondary (AID 602260); type: functional; conditions: read-out: IC50_Mean
[3] = molecular target: T1, Polyadenylate-binding protein 1; assay: PABP1 MLLE–PAM2 binding inhibitor potency, dose response, biochemical, fluorescence polarization, FITC-PAM2 peptide (AID 602259); type: functional; conditions: read-out: IC50_Mean
[4] = molecular target: T2, Protein skinhead-1 (Caenorhabditis elegans, UniProt P34707); type: functional
T2 sequence (P34707 whole entry): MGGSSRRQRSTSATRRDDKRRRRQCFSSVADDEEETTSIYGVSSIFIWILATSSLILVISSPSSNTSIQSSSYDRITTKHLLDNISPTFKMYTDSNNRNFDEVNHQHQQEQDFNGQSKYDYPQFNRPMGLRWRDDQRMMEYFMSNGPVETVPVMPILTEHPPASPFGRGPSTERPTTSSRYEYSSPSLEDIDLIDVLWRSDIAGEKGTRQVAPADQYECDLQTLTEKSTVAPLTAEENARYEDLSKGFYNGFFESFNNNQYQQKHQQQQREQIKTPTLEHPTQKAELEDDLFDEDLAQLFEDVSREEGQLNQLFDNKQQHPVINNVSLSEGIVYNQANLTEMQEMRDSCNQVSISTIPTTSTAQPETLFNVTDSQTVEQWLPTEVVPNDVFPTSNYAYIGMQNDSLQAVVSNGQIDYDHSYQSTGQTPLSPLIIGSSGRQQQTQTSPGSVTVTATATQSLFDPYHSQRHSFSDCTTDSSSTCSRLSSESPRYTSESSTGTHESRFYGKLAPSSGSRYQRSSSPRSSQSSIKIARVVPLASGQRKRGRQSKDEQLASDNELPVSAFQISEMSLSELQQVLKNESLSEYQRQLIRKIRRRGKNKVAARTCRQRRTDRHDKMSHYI

[5] = test system: H9c2; assay: cells; type: functional, cell-based; conditions: Rattus norvegicus, H9c2, Myocardium;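 also: confirmatory concentration-response retest of ultra-high-throughput screening hits for modulation of myocardial damage; cell death induced by hydrogen peroxide oxidative stress; compound pretreatment for 60 min then peroxide exposure for 2 h; potency is for protecting the cells against peroxide damage rather than for killing them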
[6] = microbe, parasite or virus in culture; type: functional; conditions: Mycobacterium tuberculosis
[7] = molecular target: Cytochrome P450 2C19 (Homo sapiens, UniProt P33261); assay: Cytochrome panel assay with activity outcomes. Panel member name: p450-cyp2c19 Compounds with AC50 equal or less than 10 uM are considered active; type: functional; conditions: read-out: AC50
[8] = molecular target: T3, Cytochrome P450 1A2 (Homo sapiens, UniProt P05177);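 also: PubChem cytochrome P450 panel assay, CYP1A2 panel member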
T3 sequence (P05177 whole entry): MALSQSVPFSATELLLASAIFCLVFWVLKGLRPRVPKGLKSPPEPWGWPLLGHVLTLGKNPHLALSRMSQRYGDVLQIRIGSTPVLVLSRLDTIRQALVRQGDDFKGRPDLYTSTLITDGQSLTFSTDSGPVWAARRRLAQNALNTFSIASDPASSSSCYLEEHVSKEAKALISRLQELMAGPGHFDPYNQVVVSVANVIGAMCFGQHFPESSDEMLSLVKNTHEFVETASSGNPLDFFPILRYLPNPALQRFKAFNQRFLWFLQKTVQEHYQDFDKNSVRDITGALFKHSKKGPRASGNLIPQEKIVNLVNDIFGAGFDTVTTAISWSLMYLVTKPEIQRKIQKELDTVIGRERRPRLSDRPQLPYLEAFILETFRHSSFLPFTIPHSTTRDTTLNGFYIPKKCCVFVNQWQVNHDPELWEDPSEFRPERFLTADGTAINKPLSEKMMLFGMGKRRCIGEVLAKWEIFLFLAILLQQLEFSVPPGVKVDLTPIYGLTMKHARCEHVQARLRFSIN

[9] = HEp-2 cell cytotoxicity, dose response, cytotoxicity control for RSV inhibitor project, HTS (AID 2410); type: functional; conditions: human respiratory syncytial virus
[10] = NIH-3T3 fibroblast cytotoxicity, dose response, cytotoxicity control, cell-based, fluorescence, Alamar Blue, secondary assay (AID 2327); type: functional;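 also: NIH-3T3 mouse fibroblasts cultured with fluconazole at 8 µg/mL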
[11] = C. albicans growth with fluconazole, confirmation, fluorescence, retest (AID 2467); type: functional, cell-based
[12] = molecular target: Cytochrome P450 3A4 (Homo sapiens, UniProt P08684);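 also: CYP3A4 tested as one member of a cytochrome P450 panel screen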
[13] = inhibitors of intracellular T. cruzi replication, confirmation, NIH3T3 host cells, beta-gal luminescence (AID 2044); type: functional, cell-based;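 also: intracellular parasites grown in NIH/3T3 mouse fibroblasts as host cells; luminescent beta-galactosidase reporter signal from transgenic T. cruzi replicating inside host cells; inhibitors lower the luminescence signal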
[14] = cytotoxicity toward NIH3T3 fibroblasts, dose response, counter-screen, cell-based, ATP luminescence, mouse fibroblasts (AID 2010); type: functional;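 also: cells exposed to compound for about 90 hours before reading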
[15] = Shn3 3'UTR reporter inhibitors, dose response, cell-based, Clone20 osteoblasts, firefly luciferase, cherry-picked (AID 624132); type: functional;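 also: firefly luciferase luminescence from reporter carrying the Shn3 3'UTR in osteoblasts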
[16] = HepG2 cell cytotoxicity, dose response, cytotoxicity control for Shn3 inhibitor project, CellTiter-Glo, cherry-picked (AID 624134); type: functional, cell-based
[17] = control 3'UTR Renilla luciferase suppression, dose response, counter-screen for Shn3 inhibitor project, cell-based, Clone20-Shn3RL, cherry-picked (AID 624133); type: functional
[18] = molecular target: Paired box protein Pax-8 (Homo sapiens, UniProt Q06710); assay: inhibitors of PAX8-driven TPO luciferase reporter, dose response, RMG-I cells, cherry-pick (AID 687027); type: functional, cell-based;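 also: luciferase reporter driven by Pax8 target thyroperoxidase promoter measured by SteadyGlo luminescence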
[19] = molecular target: T4, Corticotropin-releasing factor receptor 2/Corticotropin-releasing factor-binding protein (Homo sapiens, UniProt P24387+Q13324); assay: activators of CRF receptor 2 with binding protein – uHTS hits, confirmation (AID 602473); type: functional; conditions: read-out: EC50_Mean
T4 sequence (Q13324 whole entry): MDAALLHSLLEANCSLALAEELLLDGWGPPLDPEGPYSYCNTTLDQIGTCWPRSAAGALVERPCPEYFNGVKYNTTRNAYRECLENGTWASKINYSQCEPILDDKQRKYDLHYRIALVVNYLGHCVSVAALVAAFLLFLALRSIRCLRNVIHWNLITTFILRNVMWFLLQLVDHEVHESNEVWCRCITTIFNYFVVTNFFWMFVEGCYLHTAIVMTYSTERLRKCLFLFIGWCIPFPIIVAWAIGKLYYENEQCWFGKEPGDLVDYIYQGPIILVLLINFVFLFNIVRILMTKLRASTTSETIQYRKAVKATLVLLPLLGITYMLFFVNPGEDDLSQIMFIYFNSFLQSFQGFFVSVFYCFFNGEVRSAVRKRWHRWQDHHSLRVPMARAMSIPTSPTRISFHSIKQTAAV
T4 sequence (P24387 whole entry): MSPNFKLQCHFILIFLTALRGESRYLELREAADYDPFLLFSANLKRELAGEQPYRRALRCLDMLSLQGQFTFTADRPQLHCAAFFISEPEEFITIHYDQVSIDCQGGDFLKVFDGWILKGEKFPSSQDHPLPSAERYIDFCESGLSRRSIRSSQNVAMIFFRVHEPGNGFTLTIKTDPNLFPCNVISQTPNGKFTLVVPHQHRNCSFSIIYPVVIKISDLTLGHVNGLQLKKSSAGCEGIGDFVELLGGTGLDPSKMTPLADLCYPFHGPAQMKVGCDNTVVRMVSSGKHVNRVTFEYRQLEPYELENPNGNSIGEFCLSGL

T1 sequence (P11940 whole entry): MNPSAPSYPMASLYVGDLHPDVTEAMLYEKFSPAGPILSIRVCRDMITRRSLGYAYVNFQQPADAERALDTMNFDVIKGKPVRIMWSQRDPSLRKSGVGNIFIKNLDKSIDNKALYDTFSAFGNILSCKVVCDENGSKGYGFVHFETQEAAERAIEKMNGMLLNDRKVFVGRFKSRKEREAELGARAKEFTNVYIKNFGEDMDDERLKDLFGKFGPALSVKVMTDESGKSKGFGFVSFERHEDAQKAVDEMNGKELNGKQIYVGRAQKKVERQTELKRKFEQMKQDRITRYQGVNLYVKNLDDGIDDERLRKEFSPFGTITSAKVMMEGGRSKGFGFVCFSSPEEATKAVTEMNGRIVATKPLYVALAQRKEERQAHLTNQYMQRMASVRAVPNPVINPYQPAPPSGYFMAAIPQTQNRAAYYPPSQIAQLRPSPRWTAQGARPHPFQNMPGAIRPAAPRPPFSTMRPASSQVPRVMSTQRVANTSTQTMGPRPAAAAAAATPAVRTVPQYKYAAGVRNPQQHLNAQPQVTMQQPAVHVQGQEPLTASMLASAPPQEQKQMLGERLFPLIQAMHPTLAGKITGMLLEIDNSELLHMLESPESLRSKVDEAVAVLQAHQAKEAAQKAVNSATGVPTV
Genome polyprotein, sequence (P29990 2492-3391 limits assumed): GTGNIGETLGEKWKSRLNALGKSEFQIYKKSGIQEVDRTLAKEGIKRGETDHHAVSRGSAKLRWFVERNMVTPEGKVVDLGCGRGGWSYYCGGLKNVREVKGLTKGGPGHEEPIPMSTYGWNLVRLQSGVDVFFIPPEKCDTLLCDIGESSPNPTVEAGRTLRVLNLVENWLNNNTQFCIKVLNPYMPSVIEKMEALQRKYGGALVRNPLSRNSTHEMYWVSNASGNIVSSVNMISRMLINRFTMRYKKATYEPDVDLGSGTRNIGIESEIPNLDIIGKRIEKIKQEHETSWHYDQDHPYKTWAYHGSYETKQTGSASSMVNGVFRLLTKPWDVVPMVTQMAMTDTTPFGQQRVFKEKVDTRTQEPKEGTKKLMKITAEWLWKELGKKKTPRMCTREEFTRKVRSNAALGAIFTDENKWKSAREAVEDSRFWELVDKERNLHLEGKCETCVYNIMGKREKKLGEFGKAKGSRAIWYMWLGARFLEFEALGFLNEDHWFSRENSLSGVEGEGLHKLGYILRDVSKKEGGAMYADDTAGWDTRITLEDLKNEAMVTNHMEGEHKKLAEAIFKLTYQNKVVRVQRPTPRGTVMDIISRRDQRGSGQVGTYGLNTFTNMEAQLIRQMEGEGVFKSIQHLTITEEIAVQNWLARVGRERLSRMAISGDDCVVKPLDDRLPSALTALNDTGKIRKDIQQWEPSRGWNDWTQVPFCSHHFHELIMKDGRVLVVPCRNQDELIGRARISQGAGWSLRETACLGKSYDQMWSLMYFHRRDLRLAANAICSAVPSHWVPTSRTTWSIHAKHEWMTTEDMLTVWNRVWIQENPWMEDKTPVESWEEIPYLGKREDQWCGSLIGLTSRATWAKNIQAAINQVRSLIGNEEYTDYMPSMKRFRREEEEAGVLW
Cytochrome P450 2C19, sequence (P33261 whole entry): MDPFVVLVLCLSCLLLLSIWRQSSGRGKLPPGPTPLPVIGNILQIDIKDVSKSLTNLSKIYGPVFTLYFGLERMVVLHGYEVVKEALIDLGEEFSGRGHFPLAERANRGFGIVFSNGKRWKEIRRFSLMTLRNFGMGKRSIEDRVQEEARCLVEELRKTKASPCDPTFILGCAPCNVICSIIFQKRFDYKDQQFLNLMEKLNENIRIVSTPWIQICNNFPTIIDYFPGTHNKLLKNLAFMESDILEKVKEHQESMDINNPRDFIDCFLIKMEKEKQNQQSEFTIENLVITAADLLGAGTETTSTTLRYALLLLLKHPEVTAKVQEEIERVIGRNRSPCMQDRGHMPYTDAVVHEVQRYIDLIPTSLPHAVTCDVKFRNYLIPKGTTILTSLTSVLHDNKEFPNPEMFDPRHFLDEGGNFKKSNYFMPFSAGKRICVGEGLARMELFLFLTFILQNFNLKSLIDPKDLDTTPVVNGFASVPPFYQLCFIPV
Cytochrome P450 3A4, sequence (P08684 whole entry): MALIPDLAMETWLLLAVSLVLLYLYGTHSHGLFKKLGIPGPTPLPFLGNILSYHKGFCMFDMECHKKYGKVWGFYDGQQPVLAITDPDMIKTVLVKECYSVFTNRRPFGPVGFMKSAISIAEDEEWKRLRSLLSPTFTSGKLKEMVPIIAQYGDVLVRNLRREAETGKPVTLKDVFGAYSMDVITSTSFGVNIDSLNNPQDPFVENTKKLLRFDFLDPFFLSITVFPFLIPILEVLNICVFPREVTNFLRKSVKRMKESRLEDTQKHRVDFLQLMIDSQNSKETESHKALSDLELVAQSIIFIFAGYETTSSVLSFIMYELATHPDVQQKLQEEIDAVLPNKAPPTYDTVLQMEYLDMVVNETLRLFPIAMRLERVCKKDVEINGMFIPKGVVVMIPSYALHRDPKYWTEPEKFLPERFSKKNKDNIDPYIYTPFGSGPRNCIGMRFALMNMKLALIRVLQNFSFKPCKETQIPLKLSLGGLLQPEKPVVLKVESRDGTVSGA
Paired box protein Pax-8, sequence (Q06710 whole entry): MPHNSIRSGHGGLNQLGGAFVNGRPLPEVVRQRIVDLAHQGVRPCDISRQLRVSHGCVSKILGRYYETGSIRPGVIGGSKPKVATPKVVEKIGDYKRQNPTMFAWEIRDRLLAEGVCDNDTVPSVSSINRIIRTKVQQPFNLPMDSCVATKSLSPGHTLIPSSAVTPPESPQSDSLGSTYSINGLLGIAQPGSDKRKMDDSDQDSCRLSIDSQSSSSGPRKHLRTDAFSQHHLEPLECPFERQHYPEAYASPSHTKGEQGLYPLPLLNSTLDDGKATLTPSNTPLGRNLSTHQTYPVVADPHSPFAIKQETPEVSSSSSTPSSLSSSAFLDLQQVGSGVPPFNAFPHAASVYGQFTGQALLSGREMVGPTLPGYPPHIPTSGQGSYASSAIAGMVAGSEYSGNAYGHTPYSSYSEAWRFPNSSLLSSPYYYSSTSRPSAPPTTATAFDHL

C/C(=N/Nc1ccc(C(=O)O)cc1)c1ccc(O)c(O)c1O
IC50 [1]: > 100 µM (active)

O=C(CSC1=Nc2ccccc2C2=NC(CC(=O)NC3CCCCC3)C(=O)N12)NCc1ccco1 (stereo not given)
IC50 [2]: > 66 µM (inactive) | IC50 [3]: 31.2 µM (inactive)

CCc1ccc(NCc2nc(-c3ccccc3)no2)cc1
IC50 [4]: > 100 µM (inactive)

COc1ccccc1CNC(=O)CSC1=NCCS1
IC50 [2]: > 66 µM (inactive) | IC50 [3]: > 66 µM (inactive)

Cc1cc2cc(CN=C(S)Nc3ccc(OC(F)F)cc3)ccc2n1C
IC50 [2]: > 66 µM (inactive) | IC50 [3]: > 66 µM (inactive) | IC50 [4]: > 100 µM (inactive)

NC(=O)c1ccccc1OCC(=O)Nc1cccnc1Cl
IC50 [5]: 27.7 µM (active)

O=C1NC(=O)C(=Cc2cccc(OCCOc3ccccc3)c2)C(=O)N1
IC50 [1]: 51.2 µM (active)

COc1ccc(C(C2C(=O)CC(C)(C)CC2=O)C2C(=O)CC(C)(C)CC2=O)cc1COCC(F)(F)F
IC50 [1]: 27.7 µM (active)

O=C(C1CC(=O)N(c2ccc3c(c2)OCCO3)C1)N1CCN(c2cccc(C(F)(F)F)c2)CC1 (stereo not given)
CC50 [6]: > 40 µM (active)

Cc1cc(SCNC(=O)c2ccccc2)nc(C(C)C)n1
IC50 [2]: > 66 µM (inactive) | IC50 [3]: > 66 µM (inactive)

Cc1cc(=O)oc2cc(OCC(=O)N3CCN(C(=O)C4COc5ccccc5O4)CC3)c(Cl)cc12 (stereo not given)
IC50 [5]: > 79 µM (inactive)

CCOC(=O)c1c(NC(=O)c2ccccc2)sc2c1CCc1ccccc1-2
IC50 [2]: > 66 µM (inactive) | IC50 [3]: > 66 µM (inactive)

COC(=O)N1CCC2(CCCN(C(c3ccccc3)c3ccccc3)C2)CC1
AC50 [7]: 25.1 µM (inconclusive) | AC50 [8]: 15.8 µM (inconclusive)

CCOC(=O)C1CCCN(C(=O)c2ccc(-c3ccc([N+](=O)[O-])cc3)o2)C1 (stereo not given)
IC50 [2]: > 66 µM (inactive) | IC50 [3]: > 66 µM (inactive)

Cc1ccc(-c2ccc(=O)n(CC(=O)N3CCN(c4cc(Cl)ccc4C)CC3)n2)cc1
CC50 [6]: > 40 µM (active)

O=C(NC(=S)Nc1ccc2c(c1)OCCO2)c1cccc(Br)c1
CC50 [9]: 34.8 µM (active) | IC50 [2]: > 66 µM (inactive) | IC50 [3]: > 66 µM (inactive)

O=C(CSc1ccc(-c2ccccn2)nn1)N1CCCc2ccccc21
IC50 [5]: 20.8 µM (active)

O=C(Nc1cccc(-c2csc(Nc3ccc(Cl)cc3)n2)c1)c1cccc(C(F)(F)F)c1
CC50 [6]: 20.6 µM (active)

NC(=O)c1ccsc1NC(=O)COC(=O)Cc1nnc(O)c2ccccc12
IC50 [5]: > 79 µM (inactive)

Cc1cccc(NC(=O)CSC(N)=O)c1C
EC50 [10]: > 150 µM (inactive) | EC50 [11]: > 38 µM (not active) | IC50 [2]: > 66 µM (inactive) | IC50 [3]: > 66 µM (inactive)

C=CCOC(=O)C1=C[C@H](c2cn(C(C)=O)c3ccccc23)C[C@H](OCc2ccc(CO)cc2)O1
IC50 [5]: 10.3 µM (active)

NC(=O)c1ccc(N2CCCCC2)c(N2C(=O)C3CC=CCC3C2=O)c1 (stereo not given)
AC50 [7]: 39.8 µM (inconclusive) | AC50 [12]: 25.1 µM (inconclusive)

O=S(=O)(NC(=S)c1ccccc1)c1ccccc1
IC50 [2]: > 66 µM (inactive) | IC50 [3]: > 66 µM (inactive)

O=C(CN1C2CCC1CC(NC(=O)C1CC1)C2)NCc1ccccc1 (stereo not given)
IC50 [4]: > 100 µM (inactive)

CCOc1ccc(C(=O)COC(=O)Cn2[nH]c(=O)c3ccccc3c2=O)cc1
IC50 [5]: > 79 µM (inactive)

O=C(Cc1ccccc1)N/N=C/c1ccc2cccc(O)c2n1
CC50 [6]: > 40 µM (active)

NC(=S)N/N=C/c1ccccc1OCCSc1ccc(Cl)cc1
EC50 [13]: 0.224 µM (active) | CC50 [6]: 24.6 µM (active) | EC50 [14]: > 60 µM (not active)

Oc1cccc2cc(Nc3ccccc3)cnc12
AC50 [15]: 0.644 µM (active) | AC50 [16]: 4 µM (active) | AC50 [17]: 1.4 µM (active) | AC50 [18]: 1.37 µM (active)

CC(=O)Oc1oc(-c2ccccc2)nc1/C=N/c1ccccc1
IC50 [1]: 86.3 µM (active) | EC50 [19]: 22.3 µM (active)

Cc1cc(C)c(S(=O)(=O)N2Cc3ccccc3-n3nncc3C2)c(C)c1
AC50 [15]: 4.36 µM (active) | AC50 [16]: 49.7 µM (active) | AC50 [17]: 5.53 µM (active)

O=C(NCc1ccc(F)c(F)c1)c1ccc(-c2ccc(F)c(F)c2)c2ccoc12
IC50 [4]: < 3.13 µM (active)

O=C(Nc1cccc(Oc2ccccc2)c1)C1Cc2c(-c3ccc4c(c3)OCO4)ccnc2O1 (stereo not given)
IC50 [4]: > 100 µM (inactive)

CC/N=c1\scc(-c2ccco2)n1/N=C/c1ccc(OC)c(O)c1
CC50 [6]: > 40 µM (active)

Brc1ccc(-c2ccc(/C=N/Nc3nncc(-c4ccccc4)n3)o2)cc1
CC50 [6]: 20.7 µM (active)

O=C(Nc1ccc(Cl)cc1)Nc1ccc(Br)cn1
IC50 [4]: > 100 µM (inactive)

CN(C)CCCO[C@@H]1[C@H]2OC(C)(C)O[C@H]2O[C@@H]1[C@H](O)CO [AMIPRILOSE HYDROCHLORIDE]
IC50 [4]: > 100 µM (inactive)

O=c1[nH]c2cc(Cl)c(Br)cc2o1 [BROMCHLORENONE]
IC50 [4]: > 100 µM (inactive)
